# From the supplement of paper PMC10331698
# ± gives the standard deviation of the averaged measurements.
# What was measured:
# Experiment in all cases: level (log10 ratio to DMSO vehicle control); higher = higher biomarker level / cell amount than vehicle control
# Conditions in all cases: in DMSO
# [1] = compound: O=S(=O)(O)C(F)(F)C(F)(F)C(F)(F)C(F)(F)C(F)(F)C(F)(F)C(F)(F)C(F)(F)F [Perfluorooctanesulfonic acid]
# Protocol: (§1)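 BioMAP Diversity Plus panel of 12 human primary cell co-culture systems (3C, 4H, LPS, SAg, BT, BF4T, BE3C, CASM3C, HDF3CGF, KF3CT, MyoF, Mphg). Compounds were added 1 h before stimulation and left for 24 h (MyoF 48 h; BT 72 h for soluble read-outs or 6 d for IgG). Biomarkers were read by ELISA, cytotoxicity by SRB, PBMC viability and proliferation by Alamar Blue. Each well value was divided by the mean of 8 DMSO control wells on the same plate and log10 transformed; duplicate blinded samples were tested at 4 concentrations.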
# [2] = compound: O=C(O)C(F)(F)C(F)(F)C(F)(F)C(F)(F)C(F)(F)F [Perfluorohexanoic acid]
# Protocol: as §1
# [3] = compound: FC(F)(F)C(F)(F)C(F)(F)C(F)(F)C(F)(F)C(F)(F)C(F)(F)CCI [1-Iodo-1H,1H,2H,2H-perfluorononane]
# Protocol: as §1
# [4] = compound: O=C(O)C(F)(F)C(F)(F)C(F)(F)C(F)(F)C(F)(F)C(F)(F)C(F)(F)C(F)(F)C(F)(F)C(F)(F)C(F)(F)C(F)(F)C(F)(F)F [Perfluorotetradecanoic acid]
# Protocol: as §1
# [5] = compound: C=CC(=O)OCCC(F)(F)C(F)(F)C(F)(F)C(F)(F)F [2-(Perfluorobutyl)ethyl acrylate]
# Protocol: as §1
# [6] = compound: O=C(O)C(F)(F)C(F)(F)C(F)(F)C(=O)O [Hexafluoroglutaric acid]
# Protocol: as §1
# [7] = compound: O=S(=O)(O)C(F)(F)C(F)(F)C(F)(F)C(F)(F)C(F)(F)C(F)(F)C(F)(F)C(F)(F)F [Potassium perfluorooctanesulfonate]
# Protocol: as §1
Test System,level (log10) ([1]; 6700 nM),level (log10) ([1]; 20000 nM),level (log10) ([1]; 60000 nM),level (log10) ([2]; 6700 nM),level (log10) ([2]; 20000 nM),level (log10) ([2]; 60000 nM),level (log10) ([3]; 6700 nM),level (log10) ([3]; 20000 nM),level (log10) ([4]; 6700 nM),level (log10) ([4]; 20000 nM),level (log10) ([5]; 6700 nM),level (log10) ([5]; 20000 nM),level (log10) ([5]; 60000 nM),level (log10) ([6]; 6700 nM),level (log10) ([6]; 20000 nM),level (log10) ([6]; 60000 nM),level (log10) ([7]; 6700 nM),level (log10) ([7]; 20000 nM),level (log10) ([7]; 60000 nM)
BT:B cell Proliferation,0.0245 ± 0.0092,0.0375 ± 0.0092,0.0635 ± 0.035,-0.047 ± 0.048,-0.0035 ± 0.042,0.0275 ± 0.063,0.0135 ± 0.029,0.0045 ± 0.015,-0.0055 ± 0.023,-0.0035 ± 0.028,-0.018 ± 0.0014,-0.0275 ± 0.011,-0.264 ± 0.063,-0.005 ± 0.0042,-0.0035 ± 0.0078,0.011 ± 0.017,0.031 ± 0.016,0.0425 ± 0.018,0.0795 ± 0.005
BT:PBMC Cytotoxicity,0.0295 ± 0.0064,0.038 ± 0.016,0.078 ± 0.047,-0.024 ± 0.028,-0.0405 ± 0.028,0.004 ± 0.0057,0.0115 ± 0.0035,0.0115 ± 0.011,-0.01 ± 0.0042,0.0305 ± 0.059,-0.028 ± 0.0014,-0.073 ± 0.018,-0.251 ± 0.057,0.019 ± 0.027,-0.017 ± 0.0071,0.005 ± 0.014,-0.0055 ± 0.022,0.0125 ± 0.033,0.097 ± 0.058
BT:Secreted IgG,-0.0005 ± 0.0078,0.0025 ± 0.021,-0.0315 ± 0.016,0.0085 ± 0.00071,0.0155 ± 0.03,-0.023 ± 0.061,-0.0075 ± 0.06,0.0115 ± 0.074,-0.029 ± 0.072,0.001 ± 0.03,0.025 ± 0.017,-0.053 ± 0.054,-0.359 ± 0.049,-0.026 ± 0.04,0.055 ± 0.013,0.019 ± 0.048,0.0115 ± 0.018,0.018 ± 0.0071,-0.0055 ± 0.005
BT:sIL-2,0.0065 ± 0.0078,-0.0215 ± 0.044,0.014 ± 0.027,-0.0225 ± 0.0064,0.0345 ± 0.098,0.0275 ± 0.074,0.0055 ± 0.0035,-0.0045 ± 0.019,0.0535 ± 0.011,0.0415 ± 0.069,0.0045 ± 0.1,-0.011 ± 0.016,-0.511 ± 0.23,-0.006 ± 0.11,0.0205 ± 0.039,0.061 ± 0.013,0.042 ± 0.027,0.0595 ± 0.029,-0.0325 ± 0.077
